The text below walks through data of publication PMC6214143, “Oncotoxic Properties of Serotonin Transporter Inhibitors and 5-HT1A Receptor Ligands” (International Journal of Molecular Sciences, 2018).

Series [1] concerns the target T1, serotonin transporter (SERT) (Rattus norvegicus, UniProt P31652).
T1 construct: Rat cerebral cortex was homogenized in 30 volumes of ice-cold 50 mM Tris-HCl; from tissue; host or cells: rat cerebral cortex (membrane pellet)
Briefly: In vitro binding affinity for serotonin transporter ([3H]-citalopram displacement). To be noted: rat cerebral cortex, read-out: SERT Ki ± SEM. The protocol:
The experiments were performed according to the method described by Owens et al. Rat cerebral cortex was homogenized in 30 volumes of ice-cold 50 mM Tris-HCl containing 150 mM NaCl and 5 mM KCl, pH 7.7 at 25 °C and centrifuged at 20,000 × g for 20 min. The supernatant was decanted, and the pellet was resuspended in 30 volumes of buffer and centrifuged three times. The final pellet was suspended in Tris-HCl buffer at a proportion of approximately 5 mg wet weight/mL. An increasing concentration of the analyzed compounds (30 μL) was added to the incubation mixture containing 240 μL of tissue suspension and 30 μL of 1 nM [^3H]-citalopram (used for labeling 5-HT-transporter). Non-specific binding was determined in the presence 30 μL of 1 μM imipramine (displacer). Duplicate samples were incubated at room temperature for 1 h. The incubation was terminated by rapid filtration over fiberglass filters FilterMate B (Perkin Elmer, Waltham, MA, USA) using a 96-well FilterMate harvester (PerkinElmer, Waltham, MA, USA). The radioactivity of the filters was measured with a MicroBeta TriLux 1450 scintillation counter. Ki values were calculated from the Cheng–Prusoff equation [31]: (1) Ki=IC50/1+Lo/KD where Lo is the labeled ligand concentration, and KD is the dissociation constant of the labeled ligand.

Series [2] relates to PC-3 cells. Briefly: MTT cell survival assay, PC-3 cells. It counts as cell-based, human. Conditions: for IC50: Homo sapiens, PC-3 cells, MTT, 72 h; for Selectivity Index: IC50 Balb/c 3T3 / IC50 PC-3. The protocol: (§1) The effects of the test compounds on the survival of PC-3, SH-SY5Y, Balb/c 3T3 and HEK293 cells was measured with the aid of the 3-(4,5-dimethylthiazol-2-yl)-2,5-diphenyltetrazolium bromide (MTT) assay. The cells were cultured in 96-well plates (100 μL/well) for 72 h. The optimized initial densities were the following: for PC-3—60,000 cells/mL, SH-SY5Y and Balb/c 3T3—50,000 cells/mL.
(§2) After 20 h preincubation and evaluation of the uniformity of cell growth, the medium was aspirated, and the respective solutions of the substances were added to the culture medium. Control cells were only treated the solvent used for the compounds and medium alone.
(§3) MTT (3-(4,5-dimethylthiazol-2-yl)-2,5-diphenyltetrazolium bromide) is reduced by intracellular dehydrogenase, which is present only in live cells (mitochondria), to purple, water-insoluble formazan. After it is dissolved, formazan absorbance of the resulting solution is directly proportional to the number of living cells in culture.
(§4) After appropriate incubation, the culture medium was removed. Next, 50 μL of MTT solution (0.5 mg/mL) diluted in PBS to 0.5 mg/mL was added to each well. […] Then, the precipitated formazan was dissolved by the addition of 200 μL isopropanol. […] The plates were sealed to reduce evaporation before incubation. The test was performed in three to five independent experiments with four times the measured concentration tested. The cell survival percentage was determined as % of controls, which were cells treated with the test compound solvent at the highest concentration.
(In general: Tetrazolium dyes change colour on reduction, which living cells bring about.)

Series [3] relates to SH-SY5Y cells. Briefly: MTT cell survival assay, SH-SY5Y cells. In kind it is cell-based, human. To be noted: for IC50: Homo sapiens, SH-SY5Y cells, MTT, 72 h; for Selectivity Index: IC50 Balb/c 3T3 / IC50 SH-SY5Y. On the procedure:
as §1, §2, §3, §4

The test system of series [4] is Balb/c 3T3 cells. Kind of series: MTT cell survival assay, Balb/c 3T3 cells (normal reference). It counts as cell-based, murine. To be noted: Mus musculus, BALB/c3T3, 72 h. The protocol: as §1, §2, §3
After appropriate incubation, the culture medium was removed. Next, 50 μL of MTT solution (0.5 mg/mL) diluted in PBS to 0.5 mg/mL was added to each well. The plates were incubated for 3 h at 37 °C. Then, the precipitated formazan was dissolved by the addition of 200 μL isopropanol. After a 24-hour incubation at 4 °C in the dark, the absorbance of the dissolved formazan was measured at 570 nm (the maximum absorption of formazan) and at 690 nm (reference wavelength) using a Power Wave XS microplate spectrophotometer (Bio-Tek, Winooski, VT, USA). The plates were sealed to reduce evaporation before incubation. The test was performed in three to five independent experiments with four times the measured concentration tested. The cell survival percentage was determined as % of controls, which were cells treated with the test compound solvent at the highest concentration.

The target of series [5] is T2, 5-HT1A receptor (Homo sapiens, UniProt P08908).
T2 construct: EGFP; expressed in transfected cells
T2 sequence (P08908 1-422): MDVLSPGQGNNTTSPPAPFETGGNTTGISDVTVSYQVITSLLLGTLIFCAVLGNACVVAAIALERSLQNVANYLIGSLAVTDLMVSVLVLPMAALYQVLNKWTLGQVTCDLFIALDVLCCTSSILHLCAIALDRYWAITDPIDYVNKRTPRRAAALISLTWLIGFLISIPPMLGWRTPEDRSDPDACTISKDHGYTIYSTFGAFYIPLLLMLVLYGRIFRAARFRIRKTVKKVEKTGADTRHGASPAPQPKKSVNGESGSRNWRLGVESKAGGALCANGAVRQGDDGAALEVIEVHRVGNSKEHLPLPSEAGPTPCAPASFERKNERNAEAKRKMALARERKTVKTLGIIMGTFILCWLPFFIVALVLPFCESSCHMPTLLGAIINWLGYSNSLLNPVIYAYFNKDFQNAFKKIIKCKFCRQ
Kind of series: cAMP level (HTRF) in HEK293 cells that overexpress the 5-HT1AR gene. In kind it is cell-based. On the procedure: (§5) The examination of the functional activity read out as cAMP level inhibition and ERK1/2 and Akt1 phosphorylation was performed according to the instructions of the One-plate Cisbio Bioassays cAMP dynamic 2, phospho-ERK (Thr202/Tyr204) and Akt1 phospho- S473 Cellular Assay Kits respectively, using a HEK293 human fibroblast cell line that overexpresses 5-HT1A receptors. […] The cAMP levels in PC-3 cells were determined using 600,000 cells/mL. Receptor activation with the appropriate ligands was carried out for 30 min, and then the cells were lysed. The results were analyzed with GraphPad Prism v 6.0 (GraphPad Software, San Diego, CA, USA) using its in-built functions. Ligand activity was determined using a 4-parameter equation of the dose-response function. […] M.
(§6) All compounds were tested with both agonists and antagonists. To test the response of cAMP to an agonist the cells were activated with forskolin (1 µM) followed by agonist addition. […] Data are an average of minimum three independent experiments in duplicate. The control of specific activity was measured under the same conditions on cells lacking the 5-HT1A receptor. The results were expressed as % of the reference agonist activity. In the antagonist mode 100% of the reference agonist activity (EC80) corresponded to 0% antagonist activity.
On the technique in general: cAMP levels reflect the balance of adenylyl cyclase and phosphodiesterase activity.

In series [6] the target is T2, 5-HT1A receptor. Kind of series: ERK1/2 phosphorylation (HTRF) in HEK293 cells that overexpress the 5-HT1AR gene. In kind it is cell-based. To be noted: for EC50: agonist mode, HEK293-5-HT1A cells, read-out: ERK1/2 EC50. The protocol: as §5, §6
For orientation: TR-FRET usually uses a lanthanide donor and a delayed reading to cut background.

On the set-up of series [7]: method as in PMID 23574807. To be noted: Porsolt forced swim test; cited from earlier work.
The test system of series [8] is PC-3 prostate cancer cells. Kind of series: Apoptosis determination (FITC Annexin V, flow cytometry) in PC-3 cells. In kind it is cell-based, human. To be noted: 72 h, sum of early and late apoptosis. The protocol: Apoptosis was measured using the FITC Annexin V Apoptosis Detection Kit I (BD Biosciences, San Jose, CA, USA). Cells, after incubations 72 h with tested agents, were centrifuged, rinsed twice with cold phosphate-buffered saline (PBS) and suspended in binding buffer at 1 × 10^6 cells/mL. Then, 100-μL volumes of the cell suspensions were labeled according to the manufacturer’s instructions. Flow cytometry analysis was performed within 1 h after labeling. Flow cytometry analyses was run on a FACSCanto II flow cytometer (BD Biosciences, San Jose CA, USA) and analyzed using BD FACSDiva software.

Molecules are shown by their SMILES. Counter-ions that a name gives are not always drawn.

T1 sequence (P31652 whole entry): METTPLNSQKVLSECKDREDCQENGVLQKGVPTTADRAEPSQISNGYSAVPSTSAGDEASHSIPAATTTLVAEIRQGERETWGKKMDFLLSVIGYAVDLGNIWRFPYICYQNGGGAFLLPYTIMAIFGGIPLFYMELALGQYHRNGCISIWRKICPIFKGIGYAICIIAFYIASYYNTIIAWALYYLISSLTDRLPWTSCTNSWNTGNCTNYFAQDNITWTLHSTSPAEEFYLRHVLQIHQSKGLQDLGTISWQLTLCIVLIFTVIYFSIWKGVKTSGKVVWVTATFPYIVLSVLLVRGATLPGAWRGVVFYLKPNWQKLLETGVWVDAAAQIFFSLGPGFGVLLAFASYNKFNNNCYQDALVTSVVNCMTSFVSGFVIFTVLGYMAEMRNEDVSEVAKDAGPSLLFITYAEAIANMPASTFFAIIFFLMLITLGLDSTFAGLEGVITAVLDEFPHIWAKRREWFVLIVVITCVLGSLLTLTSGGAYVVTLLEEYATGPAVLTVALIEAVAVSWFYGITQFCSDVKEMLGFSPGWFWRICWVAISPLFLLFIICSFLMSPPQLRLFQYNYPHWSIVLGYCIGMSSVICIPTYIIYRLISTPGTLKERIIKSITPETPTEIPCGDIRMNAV

With `Cl.O=[N+]([O-])c1ccc2nc(N3CCN(Cc4ccc(F)cc4)CC3)ccc2c1` [AB5A, 2-[4-(4-fluorobenzyl)piperazin-1-yl]-6-nitroquinoline hydrochloride], the Ki (usually a dissociation constant, usually derived from enzyme kinetics or from competition with a known ligand) in series [1] stood at 0.0074 ± 0.0024 µM. Further, the IC50 (as a rule, the midpoint of a concentration-inhibition curve) turned out to be 27.2 ± 3.2 µM in [2]; 18.1 ± 1.68 µM in series [3]; 38.9 ± 4.08 µM in series [4]; 96.9 µM in series [5]; 17.9 µM in series [6]. In addition, the “Selectivity Index” value is recorded as 1.43 in series [2] and 2.15 in series [3].
For `Cl.O=[N+]([O-])c1ccc2nc(N3CCN(CC4CCCCC4)CC3)ccc2c1` [AB21, 2-[4-(cyclohexylmethyl)piperazin-1-yl]-6-nitroquinoline hydrochloride], the melting point (usually the temperature of the solid-liquid transition) lay in the range of 107 to 108 °C. In addition, the inhibition constant (Ki) in series [1] was 0.0149 ± 0.0016 µM. Moreover, in series [2], the IC50 amounted to 18 ± 1.88 µM and the “Selectivity Index” value stood at 1.14. For the same molecule, in [3], 21.6 ± 1.07 µM corresponded to half-maximal inhibition (IC50) and the “Selectivity Index” value is reported as 0.95. For the same molecule, in [4], the IC50 was determined as 20.5 ± 3.5 µM. In series [5], this molecule returned an IC50 of 0.002 µM. Moreover, the IC50 in [6] amounted to 0.78 µM.
In the case of `CCCCCCCCCN1CCN(c2ccc3cc([N+](=O)[O-])ccc3n2)CC1` [AZ05, 6-nitro-2-(4-nonylpiperazin-1-yl)quinolone hydrochloride], the IC50 in series [2] came out at 9.85 ± 0.79 µM; in series [3], 17.3 ± 1.85 µM; in series [4], 24.4 ± 1.49 µM; in [5], 9.7 µM; in series [6], 1.28 µM. The “Selectivity Index” value was found to be 2.48 in series [2] and 1.41 in series [3]. Besides, the antidepressant activity result in series [7] was “moderate antidepressant activity”.
Take `CCCCCCCCCCCN1CCN(c2ccc3cc([N+](=O)[O-])ccc3n2)CC1.Cl` [AZ07, 6-nitro-2-(4-undecylpiperazin-1-yl)quinoline hydrochloride]: the IC50 came out at 5.74 ± 1.02 µM in series [2]; 9.15 ± 0.74 µM in series [3]; 11.5 ± 0.62 µM in series [4]; 0.73 µM in series [5]; 0.9 µM in series [6]. In addition, the “Selectivity Index” value was found to be 2.00 in series [2] and 1.26 in series [3]. Besides, the apoptosis in [8] (25 μM) is 20%; in series [8] (50 μM), 35%; in series [8] (75 μM), 44%. Further, in series [7], the antidepressant activity result was “moderate antidepressant activity”.
As for `CNCCC(Oc1ccc(C(F)(F)F)cc1)c1ccccc1` (stereo not drawn) [Fluoxetine, fluoxetine, reference compound], the results for the apoptosis in series [8] (25 μM), in series [8] (50 μM) and in series [8] (75 μM) were 21%, 60% and 80%, respectively.
For `COCCCC/C(=N\OCCN)c1ccc(C(F)(F)F)cc1` [Fluvoxamine, fluvoxamine, reference compound], the IC50 in series [2] is 47.8 ± 2.85 µM; in series [3], 89.4 ± 3.64 µM; in series [4], 52 ± 5.4 µM.
Consider `CCCCCCCCN1CCN(c2ccc3cc([N+](=O)[O-])ccc3n2)CC1.Cl` [KW117, 6-nitro-2-(4-octylpiperazin-1-yl)quinoline hydrochloride], for which the IC50 in series [2] is 14.4 ± 1.7 µM; in series [3] it was 25.4 ± 2.66 µM; in series [4], 38.1 ± 6.54 µM; in [6], 7.18 µM. Also, the “Selectivity Index” value is listed as 2.65 in [2] (listed as KW117 (6)) and 1.50 in [3]. The antidepressant activity entry in series [7] is reported as “moderate antidepressant activity”.
On to `COCCCC/C(=N\OCCNC(C)=O)c1ccc(C(F)(F)F)cc1` [N-Ac-Fluvoxamine, reference compound], for which the IC50 in [2] stood at 92.2 ± 9.65 µM; in series [3], 112 ± 3.85 µM; in series [4] it was 136 ± 3.95 µM; in series [5], 20.1 µM; in [6], 11.2 µM. Besides, the “Selectivity Index” value in series [3] stood at 1.21.
Take `CC(=O)N1CCC(c2ccc(F)cc2)C(COc2ccc3c(c2)OCO3)C1` (stereo not drawn) [N-Ac-Paroxetine, reference compound]: the IC50 in series [2] was 45.3 ± 1.44 µM; in series [3] it was 65.6 ± 1.01 µM; in [4], 66.2 ± 2.35 µM; in [5], 1 µM. For the same molecule, the “Selectivity Index” value in series [2] is listed as 1.46; in [3], 1.01. In series [6], the EC50 is 4.23 µM.
For the molecule `Fc1ccc([C@@H]2CCNC[C@H]2COc2ccc3c(c2)OCO3)cc1` [Paroxetine, paroxetine, reference compound], the IC50 was found to be 12.1 ± 0.37 µM in series [2], 18.1 ± 0.48 µM in series [3], 14.9 ± 0.24 µM in series [4] and 0.0511 µM in series [5]. Besides, the “Selectivity Index” value in [2] is 1.23; in series [3], 0.82. Besides, the EC50 in series [6] was found to be 0.15 µM.
`COc1ccccc1N1CCN(CCN(C(=O)C2CCCCC2)c2ccccn2)CC1` [WAY100635, N-[2-[4-(2-Methoxyphenyl)-1-piperazinyl]ethyl]-N-2-pyridinylcyclohexanecarboxamide maleate, reference compound]: the half-inhibitory concentration (IC50) in series [2] worked out at 43.3 ± 4.05 µM; in series [3], 74.3 ± 11.8 µM; in [4], 88 ± 13.5 µM.
